In PubChem BioAssay (NCI):
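All cell lines were grown in 96-well plates and treated with compound for 48 hours. Definition used: TGI = concentration required for complete inhibition of growth.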

Assays:
Assay in all cases: growth of human tumour cells (NCI), 48 h
[1] = system: M14 melanoma
[2] = system: OVCAR-4 ovarian
[3] = system: ACHN renal
[4] = system: OVCAR-8 ovarian
[5] = system: EKVX NSCLC
[6] = system: MDA-MB-231 breast
[7] = system: SF-295 CNS
[8] = system: SK-OV-3 ovarian
[9] = system: TK-10 renal
[10] = system: SF-539 CNS
[11] = system: HOP-92 NSCLC
[12] = system: HL-60(TB) leukemia
[13] = system: HCT-15 colon
[14] = system: SW-620 colon
[15] = system: OVCAR-3 ovarian
[16] = system: CCRF-CEM leukemia
[17] = system: UACC-257 melanoma
[18] = system: UO-31 renal
[19] = system: CAKI-1 renal

## COc1ccc(C(=O)N2CCN(c3ccc4[nH]c(=O)oc4c3)CC2)cc1
[1]
  TGI: > 100 µM
[2]
  TGI: > 100 µM
[3]
  TGI: > 100 µM
[4]
  TGI: > 100 µM
[5]
  TGI: > 100 µM
[6]
  TGI: > 100 µM
[7]
  TGI: > 100 µM
[8]
  TGI: > 100 µM
[9]
  TGI: > 100 µM
[10]
  TGI: > 100 µM
[11]
  TGI: > 100 µM
[12]
  TGI: > 100 µM
[13]
  TGI: > 100 µM
[14]
  TGI: > 100 µM
[15]
  TGI: > 100 µM
[16]
  TGI: > 100 µM
[17]
  TGI: > 100 µM
[18]
  TGI: > 100 µM

## O=C(NN1C(=O)c2ccccc2C1=O)c1ccccc1Nc1ccccc1C(=O)NN1C(=O)c2ccccc2C1=O
[1]
  TGI: > 100 µM
[2]
  TGI: > 100 µM
[19]
  TGI: > 100 µM
[3]
  TGI: > 100 µM
[4]
  TGI: > 100 µM
[5]
  TGI: > 100 µM
[6]
  TGI: > 100 µM
[7]
  TGI: > 100 µM
[9]
  TGI: > 100 µM
[10]
  TGI: > 100 µM
[11]
  TGI: > 100 µM
[12]
  TGI: > 100 µM
[13]
  TGI: > 100 µM
[14]
  TGI: > 100 µM
[15]
  TGI: > 100 µM
[16]
  TGI: > 100 µM
[17]
  TGI: > 100 µM
[18]
  TGI: > 100 µM

## NC(=O)NC(=O)c1ccc(NC(=O)CBr)cc1
[19]
  TGI: 1.52 µM
[3]
  TGI: 2.91 µM
[4]
  TGI: 8.38 µM
[5]
  TGI: 5.41 µM
[6]
  TGI: 6.48 µM
[7]
  TGI: 27.3 µM
[8]
  TGI: 9.49 µM
[9]
  TGI: 2.68 µM
[10]
  TGI: 6.35 µM
[11]
  TGI: 4.59 µM
[12]
  TGI: 3.27 µM
[13]
  TGI: 4.56 µM
[14]
  TGI: 1.74 µM
[15]
  TGI: 2.74 µM
[16]
  TGI: 0.376 µM
[17]
  TGI: 5.29 µM
[18]
  TGI: 2.78 µM

## COC(=O)C(Cc1c[nH]c2ccccc12)NP(=O)(O)OCC1OC(n2cc(F)c(=O)[nH]c2=O)CC1O (stereo not drawn)
[1]
  TGI: > 100 µM
[2]
  TGI: > 100 µM
[3]
  TGI: > 100 µM
[4]
  TGI: > 100 µM
[5]
  TGI: > 100 µM
[6]
  TGI: > 100 µM
[7]
  TGI: > 100 µM
[8]
  TGI: > 100 µM
[9]
  TGI: > 100 µM
[10]
  TGI: > 100 µM
[11]
  TGI: > 100 µM
[12]
  TGI: > 100 µM
[13]
  TGI: > 100 µM
[14]
  TGI: > 100 µM
[15]
  TGI: > 100 µM
[16]
  TGI: > 59.1 µM
[17]
  TGI: > 100 µM
[18]
  TGI: > 100 µM

## COC(=O)/C(C#N)=C(\Nc1ccccc1)N1CCCCC1
[1]
  TGI: > 100 µM
[2]
  TGI: > 100 µM
[19]
  TGI: > 100 µM
[3]
  TGI: > 100 µM
[4]
  TGI: > 100 µM
[5]
  TGI: > 100 µM
[6]
  TGI: > 100 µM
[7]
  TGI: > 100 µM
[8]
  TGI: > 100 µM
[9]
  TGI: > 100 µM
[10]
  TGI: > 100 µM
[11]
  TGI: > 100 µM
[12]
  TGI: > 100 µM
[13]
  TGI: > 100 µM
[14]
  TGI: > 100 µM
[15]
  TGI: > 100 µM
[17]
  TGI: > 100 µM
[18]
  TGI: > 100 µM

## CC(C)N1CCCOC(c2ccc([N+](=O)[O-])cc2)O1 (stereo not drawn)
[1]
  TGI: > 100 µM
[2]
  TGI: > 100 µM
[19]
  TGI: > 100 µM
[3]
  TGI: > 100 µM
[4]
  TGI: > 100 µM
[5]
  TGI: > 100 µM
[6]
  TGI: > 100 µM
[7]
  TGI: > 100 µM
[8]
  TGI: > 100 µM
[9]
  TGI: > 100 µM
[10]
  TGI: > 100 µM
[11]
  TGI: > 100 µM
[13]
  TGI: > 100 µM
[14]
  TGI: > 100 µM
[15]
  TGI: > 100 µM
[16]
  TGI: > 100 µM
[17]
  TGI: > 100 µM
[18]
  TGI: > 100 µM

## O=C(Nc1ccccc1)C(=O)C(C(=O)c1ccccc1)C(c1ccccc1)c1ccccc1 (stereo not drawn)
[1]
  TGI: > 10 µM
[2]
  TGI: > 10 µM
[19]
  TGI: > 10 µM
[4]
  TGI: > 10 µM
[5]
  TGI: > 10 µM
[6]
  TGI: > 10 µM
[7]
  TGI: > 10 µM
[8]
  TGI: > 10 µM
[9]
  TGI: > 10 µM
[11]
  TGI: > 10 µM
[12]
  TGI: > 10 µM
[13]
  TGI: > 10 µM
[14]
  TGI: > 10 µM
[16]
  TGI: > 10 µM
[17]
  TGI: > 10 µM

## CC1=[N+]([O-])C(C)(C)N(O)C1(C)C
[1]
  TGI: > 100 µM
[2]
  TGI: > 100 µM
[3]
  TGI: > 100 µM
[4]
  TGI: > 100 µM
[5]
  TGI: > 100 µM
[6]
  TGI: > 100 µM
[7]
  TGI: > 100 µM
[8]
  TGI: > 100 µM
[9]
  TGI: > 100 µM
[10]
  TGI: > 100 µM
[11]
  TGI: > 100 µM
[12]
  TGI: > 100 µM
[13]
  TGI: > 100 µM
[14]
  TGI: > 100 µM
[15]
  TGI: > 100 µM
[16]
  TGI: > 100 µM
[18]
  TGI: > 100 µM

## COc1cc(/C=C2\N=C(c3ccccc3)N(/N=C/c3cc4cc(C)ccc4nc3Cl)C2=O)cc(OC)c1OC
[1]
  TGI: > 100 µM
[2]
  TGI: > 100 µM
[19]
  TGI: > 100 µM
[3]
  TGI: > 100 µM
[4]
  TGI: > 100 µM
[5]
  TGI: > 100 µM
[6]
  TGI: > 100 µM
[7]
  TGI: > 100 µM
[8]
  TGI: > 100 µM
[9]
  TGI: > 100 µM
[10]
  TGI: 41.8 µM
[11]
  TGI: > 100 µM
[12]
  TGI: 28.2 µM
[13]
  TGI: > 100 µM
[14]
  TGI: > 100 µM
[15]
  TGI: > 100 µM
[17]
  TGI: > 100 µM
[18]
  TGI: > 100 µM

## COc1cc(/C=N/NC2=NCCCN2)ccc1O
[1]
  TGI: > 100 µM
[2]
  TGI: > 100 µM
[3]
  TGI: > 100 µM
[4]
  TGI: > 100 µM
[5]
  TGI: > 100 µM
[6]
  TGI: > 100 µM
[7]
  TGI: > 100 µM
[8]
  TGI: > 100 µM
[9]
  TGI: > 100 µM
[10]
  TGI: > 100 µM
[11]
  TGI: > 100 µM
[12]
  TGI: > 100 µM
[13]
  TGI: > 100 µM
[14]
  TGI: > 100 µM
[15]
  TGI: > 100 µM
[16]
  TGI: > 100 µM
[17]
  TGI: > 100 µM
[18]
  TGI: > 100 µM

## C=C(Cl)C(Br)(CBr)CCC(Br)C(C)(C)Br (stereo not drawn)
[1]
  TGI: > 10 µM
[2]
  TGI: > 10 µM
[19]
  TGI: > 10 µM
[3]
  TGI: > 10 µM
[4]
  TGI: > 1 µM
[5]
  TGI: > 10 µM
[6]
  TGI: 3.38 µM
[7]
  TGI: > 10 µM
[8]
  TGI: > 10 µM
[9]
  TGI: > 10 µM
[10]
  TGI: 4.92 µM
[11]
  TGI: > 10 µM
[12]
  TGI: > 1 µM
[14]
  TGI: 9.33 µM
[15]
  TGI: > 10 µM
[16]
  TGI: > 10 µM
[18]
  TGI: > 10 µM

## C=C1CC(COc2ccc3ccc(=O)oc3c2)(c2ccccc2)OC1=O (stereo not drawn)
[1]
  TGI: 2.4 µM
[2]
  TGI: 3.22 µM
[19]
  TGI: 2.52 µM
[3]
  TGI: 3.61 µM
[4]
  TGI: 7.9 µM
[5]
  TGI: 22 µM
[6]
  TGI: 6.88 µM
[7]
  TGI: 20.7 µM
[8]
  TGI: 16.1 µM
[9]
  TGI: 2.99 µM
[11]
  TGI: 2.15 µM
[12]
  TGI: 0.708 µM
[13]
  TGI: 4.13 µM
[14]
  TGI: 1.94 µM
[15]
  TGI: 3.36 µM
[16]
  TGI: 2.7 µM
[17]
  TGI: 4.05 µM
[18]
  TGI: 9.76 µM

## O=c1[nH]c(=O)n(C2CC(O)C(CO)O2)c2nc3ccc4ccccc4c3nc12 (stereo not drawn)
[1]
  TGI: > 100 µM
[2]
  TGI: > 100 µM
[19]
  TGI: > 100 µM
[3]
  TGI: > 100 µM
[4]
  TGI: > 100 µM
[5]
  TGI: > 100 µM
[6]
  TGI: > 100 µM
[7]
  TGI: > 100 µM
[8]
  TGI: > 100 µM
[9]
  TGI: > 100 µM
[10]
  TGI: > 100 µM
[11]
  TGI: > 100 µM
[13]
  TGI: > 100 µM
[14]
  TGI: > 100 µM
[15]
  TGI: > 100 µM
[16]
  TGI: > 100 µM
[17]
  TGI: > 100 µM
[18]
  TGI: > 100 µM
